Measurements taken from patent US8551999B2, “Heterocyclic compound and pharmaceutical composition thereof” (Otsuka Pharmaceutical Co., Ltd., priority 2007, dated 2013).
Counter-ions that a name gives are not always drawn.

How the values were obtained:
[1] = test system: human chronic myelocytic leukemia cells (KU812); experiment: Antiproliferative effect on cancer cells (in vitro), WST-8 assay, KU812; type: cell-based; details: 5 days incubation with test compound
Experimental: The growth inhibition on human chronic myelocytic leukemia cells (KU812) was determined by a WST-8 assay according to the method of Singh A K, et al. (Cancer Lett. 1996 Oct. 1; 107(1): 109-15.). In this method, KU812 cells were seeded in RPMI 1640 medium containing 10% fetal bovine serum in a 96-well microplate and incubated at 37° C. for 24 hours in the presence of 5% carbon dioxide. Then, the test compound was added and the cells were incubated for another 5 days. After incubation, 15 μL of 5 mM WST-8 (2-(2-methoxy-4-nitrophenyl)-3-(4-nitrophenyl)-5-(2,4-disulfenyl)-2H-tetrazolium, monosodium salt) was added and the cells were incubated for 2 hours. After the 2-hour incubation, 15 μL of 1% SDS (sodium dodecyl sulfate) was added and the optical density was determined at the measurement wavelength of 450 nm and the reference wavelength of 630 nm, and the difference was calculated. The cell growth activity in each well was defined as the value determined by subtracting the OD in the control well not containing cells (the difference in absorbance between 492 nm and 690 nm) from that in the test well.
(§1) The 50% inhibitory concentration (IC50 (nM)) of the test compound was determined by comparing the cell growth activity in the well containing the test compound with that of the control not containing the test compound.

[2] = test system: human pancreatic cancer cells (HPAC); experiment: Antiproliferative effect on cancer cells (in vitro), sulforhodamine B method, HPAC; type: cell-based; details: 5 days incubation with test compound
Experimental: (§2) Growth inhibition of human hepatic cancer cells (HuH-7) was determined by the sulforhodamine B method based on the method of Skehan P. et al. (J Natl Cancer Inst. 1990 Jul. 4; 82(13): 1107-12). In the study, HuH-7 cells were seeded on DMEM medium containing 10% fetal bovine serum in a 96-well microplate. After 24-hour incubation at 37° C. in the presence of 5% carbon dioxide, the test compound was added and the cells were incubated for another 5 days. After incubation, a trichloroacetic acid solution was added to yield the final concentration of 10% and the cells were left to stand at 4° C. for 1 hour to fix. Then, the cells were washed with water to remove the medium and trichloroacetic acid and dried in the air. The dried cells were stored at 4° C. until they were stained with sulforhodamine B. To each well, 1% acetic acid solution containing 0.4% sulforhodamine B was added and left to stand for 20 to 30 minutes at room temperature. After discarding the supernatant, each well was washed with 1% acetic acid solution, and 10 mM Tris ([…]) solution was added while stirring to elute the dye taken into the cells. Then, the optical density was determined at the measurement wavelength of 492 nm and the reference wavelength of 690 nm, and the difference was calculated. The cell growth activity in each well was defined as the value determined by subtracting the OD in the control well not containing cells (the difference in absorbance between 492 nm and 690 nm) from that in the test well.
as §1
The growth inhibition on human pancreatic cancer cells (HPAC) was also determined by the above method using HPAC instead of HuH-7 and RPMI 1640 medium containing 10% fetal bovine serum instead of the DMEM medium containing 10% fetal bovine serum.

[3] = test system: human hepatic cancer cells (HuH-7); experiment: Antiproliferative effect on cancer cells (in vitro), sulforhodamine B method, HuH-7; type: cell-based; details: HuH-7 cells, 5 days incubation with test compound
Experimental: as §2, §1

[4] = test system: STAT3; experiment: Inhibitory effect on IL-6-induced STAT3 phosphorylation in human myeloma cells (in vitro); type: cell-based; details: U266B1 human myeloma cells, IL-6 1 ng/mL, pSTAT3 (Y705) by flow cytometry
Experimental: The inhibitory effect of the test compound on phosphorylation of STAT3 (signal transducer and activator of transcription-3) in human myeloma cells ([…]) induced by interleukin-6 (IL-6) was examined using the modified method of Tochizawa S. et al. (J Immunol Methods. 2006 Jun. 30; 313(1-2): 29-37). In the study, U266B1 cells were seeded in an RPMI 1640 medium containing 10% fetal bovine serum (FBS) in a 12-well plate and incubated at 37° C. for 2 hours in the presence of carbon dioxide. After incubation, IL-6 was added to yield the concentration of 1 ng/mL and the cells were incubated at 37° C. for 15 minutes in the presence of 5% carbon dioxide. After fixation of the cells by the addition of a buffer containing formaldehyde (Lyse/Fix Buffer, BD Biosciences) at room temperature for 10 minutes, the suspension was centrifuged to remove the supernatant and the cells were treated with ice-cold methanol for 10 minutes to improve the permeability of the cell membrane. The cells were centrifuged to remove methanol and washed twice with Dulbecco's phosphate buffered saline (D-PBS) containing 2% fetal bovine serum (FBS). A fluorescence-labeled anti-phosphorylated STAT3 (pSTAT3) antibody (Alexa Fluor 488-labeled anti-pSTAT3 (Y705) antibody, BD Biosciences) was added for staining in an ice bath for 30 minutes.
The cells were washed once with 2% FBS-containing D-PBS and suspended in 2% FBS-containing D-PBS, and the fluorescence intensity was determined using a flow cytometer (FACS Sort, BD Biosciences). The ratio of fluorescence intensity in the test group to the control group (T/C) was determined from the difference in the geometric mean of pSTAT3 fluorescence intensity between the test compound group of each concentration and the non-stimulated control group according to the following equation by defining the difference in the geometric mean of pSTAT3 fluorescence intensity between the IL-6 induced control and the non-stimulated control as 100%. T/C(%)=([…] of pSTAT3 fluorescence intensity in the cells treated with the test compound—geometric mean of pSTAT3 fluorescence intensity in non-stimulated control)/(geometric mean of fluorescence intensity of IL-6-induced pSTAT3 in the control−geometric mean of pSTAT3 fluorescence intensity in non-stimulated control)×100.
The concentration of the test compound inhibiting phosphorylation of STATS at 50% (IC50; concentration of the test compound corresponding to 50% T/C(%)) was determined using T/C(%) values at the respective concentrations and defined as the index for the inhibitory activity.

melting point [°C] | IC50 [4] [nM] | Compound | further results
213.4 to 214.1 | – | COc1ccc(S(=O)(=O)N(C)c2ccc(Oc3ccc4cc(C(=O)N5CCN(Cc6ccc(OCC(F)(F)F)cc6)CC5)n(C)c4c3)nc2)cc1.Cl [Example 73, 4-Methoxy-N-methyl-N-[6-(1-methyl-2-{4-[4-(2,2,2-trifluoro-ethoxy)benzyl]piperazine-1-carbonyl}-1H-indol-6-yloxy)pyridin-3-yl]benzenesulfonamide hydrochloride] | IC50 ([1]; Homo sapiens, 120 h): < 2 nM; IC50 ([2]; Homo sapiens, 120 h): < 70 nM; IC50 ([3]; Homo sapiens, 120 h): < 10 nM
267 to 270 | < 10 | Br.CN(C(=O)c1ccc(C(F)(F)F)cc1)c1ccc(Oc2ccc3cc(C(=O)N4CCN(Cc5ccc(C#N)cc5)CC4)n(C)c3c2)nc1 [Example 321, N-(6-{2-[4-(4-Cyanobenzyl)piperazine-1-carbonyl]-1-methyl-1H-indol-6-yloxy}pyridin-3-yl)-N-methyl-4-trifluoromethylbenzamide hydrobromide] | –
246 to 248 | < 10 | Br.CCCOc1ccc(CN2CCN(C(=O)c3cc4ccc(Oc5ccc(N(C)C(=O)c6ccc(C(F)(F)F)cc6)cn5)cc4n3C)CC2)cc1 [Example 420, N-Methyl-N-(6-{1-methyl-2-[4-(4-propoxybenzyl)piperazine-1-carbonyl]-1H-indol-6-yloxy}pyridin-3-yl)-4-trifluoromethyl-benzamide hydrobromide] | –
251 to 253 | < 10 | Br.CC(C)Oc1ccc(CN2CCN(C(=O)c3cc4ccc(Oc5ccc(N(C)C(=O)c6ccc(C(F)(F)F)cc6)cn5)cc4n3C)CC2)cc1 [Example 421, N-(6-{2-[4-(4-Isopropoxybenzyl)piperazine-1-carbonyl]-1-methyl-1H-indol-6-yloxy}pyridin-3-yl)-N-methyl-4-trifluoromethyl-benzamide hydrobromide] | –
186.8 to 187 | < 10 | CC(C)Oc1ccc(CN2CCN(C(=O)c3cc4ccc(Oc5ccc(N(C)S(=O)(=O)c6ccc(Cl)c(Cl)c6)cn5)cc4n3C)CC2)cc1 [Example 507, 3,4-Dichloro-N-(6-{2-[4-(4-isopropoxybenzyl)piperazine-1-carbonyl]-1-methyl-1H-indol-6-yloxy}pyridin-3-yl)-N-methyl-benzenesulfonamide] | –
140.9 to 145.8 | < 10 | Cc1ccc(S(=O)(=O)N(C)c2ccc(Oc3ccc4cc(C(=O)N5CCN(Cc6ccc(OC(C)C)cc6)CC5)n(C)c4c3)nc2)cc1 [Example 525, N-(6-{2-[4-(4-Isopropoxybenzyl)piperazine-1-carbonyl]-1-methyl-1H-indol-6-yloxy}pyridin-3-yl)-4,N-dimethylbenzenesulfonamide] | –
240 to 243 | < 10 | Cc1ccc(S(=O)(=O)N(C)c2ccc(Oc3ccc4cc(C(=O)N5CCN(Cc6ccc7c(c6)OC(F)(F)O7)CC5)n(C)c4c3)nc2)cc1.Cl [Example 526, N-(6-{2-[4-(2,2-Difluorobenzo[1,3]dioxol-5-ylmethyl)piperazine-1-carbonyl]-1-methyl-1H-indol-6-yloxy}pyridin-3-yl)-4,N-dimethyl-benzenesulfonamide hydrochloride] | –

More lines, now with the values behind:

Compound | melting point [°C] | IC50 [4] [nM] | further results
CCOc1ccc(CN2CCN(C(=O)c3cc4cc(Oc5ccc(N(C)C(=O)c6ccc(C(F)(F)F)cc6)cn5)ccc4n3C)CC2)cc1.O=C(O)/C=C\C(=O)O [Example 342, N-(6-{2-[4-(4-Ethoxybenzyl)piperazine-1-carbonyl]-1-methyl-1H-indol-5-yloxy}pyridin-3-yl)-N-methyl-4-trifluoromethylbenzamide maleate] | 131 to 135 | < 10 | –
CCOc1ccc(CN2CCN(C(=O)c3cc4cc(Oc5ccc(N(C)C(=O)c6ccc(C(F)(F)F)cc6)c(C)n5)ccc4n3C)CC2)cc1 [Example 368, N-(6-{2-[4-(4-Ethoxybenzyl)piperazine-1-carbonyl]-1-methyl-1H-indol-5-yloxy}-2-methylpyridin-3-yl)-h=methyl-4-trifluoromethyl-benzamide hydrobromide] | – | – | IC50 [1]: < 2 nM; IC50 [2]: < 70 nM; IC50 [3]: < 10 nM
CCc1ccc(CN2CCN(C(=O)c3cc4cc(Oc5ccc(N(C)C(=O)c6ccc(C(F)(F)F)cc6)cn5)ccc4n3C)CC2)cc1.O=C(O)C(=O)O [Example 391, N-(6-{2-[4-(4-Ethylbenzyl)piperazine-1-carbonyl]-1-methyl-1H-indol-5-yloxy}pyridin-3-yl)-N-methyl-4-trifluoromethylbenzamide oxalate] | 167 to 169 | – | IC50 ([1]; Homo sapiens, 120 h): < 2 nM; IC50 ([2]; Homo sapiens, 120 h): < 70 nM; IC50 ([3]; Homo sapiens, 120 h): < 10 nM
CN(C(=O)c1ccc(C(F)(F)F)cc1)c1ccc(Oc2ccc3c(c2)cc(C(=O)N2CCN(Cc4ccc(OC(F)(F)C(F)F)cc4)CC2)n3C)nc1.O=C(O)/C=C\C(=O)O [Example 403, N-Methyl-N-[6-(1-methyl-2-{4-[4-(1,1,2,2-tetrafluoroethoxy)-benzyl]piperazine-1-carbonyl}-1H-indol-5-yloxy)pyridin-3-yl]-4-trifluoromethylbenzamide maleate] | 137 to 139 | < 10 | –
CCOc1ccc(CN2CCN(C(=O)c3cc4cc(Oc5ccc(N(C)C(=O)c6ccc(C(F)(F)F)cc6)cn5)ccc4n3C)CC2)nc1.O=C(O)/C=C\C(=O)O [Example 417, N-(6-{2-[4-(5-Ethoxypyridin-2-ylmethyl)piperazine-1-carbonyl]-1-methyl-1H-indol-5-yloxy}pyridin-3-yl)-N-methyl-4-trifluoromethyl-benzamide maleate] | 129 to 130 | < 10 | –
Cn1c(C(=O)N2CCN(Cc3ccc(-c4csnn4)cc3)CC2)cc2ccc(Oc3ccc(NC(=O)c4ccc(C(F)(F)F)cc4)cn3)cc21 [Example 571, N-(6-{1-Methyl-2-[4-(4-[1,2,3]thiadiazol-4-ylbenzyl)piperazine-1-carbonyl]-1H-indol-6-yloxy}pyridin-3-yl)-4-trifluoromethyl-benzamide] | 220 to 220.8 | – | IC50 ([1]; Homo sapiens, 120 h): < 2 nM; IC50 ([2]; Homo sapiens, 120 h): < 70 nM; IC50 ([3]; Homo sapiens, 120 h): < 10 nM
